“Also recorded” adds a separate entry of the source.
Key:
ob/ob mice = experiment: Co-infusion of polypeptide E with human CRP and leptin through mini-osmotic pumps into ob/ob mice; assay type: in vivo, mouse
Procedure: FIG. 11. […] Infusion dosages for human CRP and leptin were 48 μg/day/mouse and 12 μg/day/mouse, respectively. The infusion rate for Pep-E (P) was 24 μg/day/mouse (medium dosage, “m”) and 48 μg/day/mouse (high dosage, “h”). Food-intake (A and C) and body weight (B and D) were monitored daily throughout the infusion. The arrows in A-D indicate the day of surgery. At the end of infusion, blood samples were collected for the measurement of blood-glucose, human CRP, and human leptin. The serum concentrations of human CRP and human leptin were 0.85±0.1 μg/ml and 18 ng±2 ng/ml, respectively. […] Also shown is glucose concentration from mice infused with human CRP and leptin but not with Pep-E.
In the in vivo experiment, polypeptide E was co-infused through mini-osmotic pumps with human CRP and leptin into the ob/ob mice. Food intake in the period of 24 hours and body weight were followed during the infusion period (FIGS. 11A-11D).

[1] = system: leptin signaling in primary hypothalamic neurons; experiment: Phospho-STAT3 and PI3-kinase assays of leptin signaling in primary hypothalamic neurons; assay type: cell-based, rat
Procedure: (§1) To determine if the interaction between CRP and leptin dampens the cellular actions of leptin, the ability of leptin to stimulate tyrosine phosphorylation of STAT3 and PI3-kinase activity was assessed in the presence of CRP in vitro. HEK293 cells over-expressing OB-Rb were serum starved for 2 hours before addition of leptin and CRP (CHEMICON or EMD Biosciences). Leptin, in the presence or absence of CRP, was pre-incubated in μ-MEM (with additional 1 mM Ca^2+) for 30 minutes at 37° C. before being applied to the cells. After a 30-minute incubation with leptin, the cells were harvested in lysis buffer (18). The resultant protein extract was subjected to a Western blot analysis using an anti-phospho-STAT3 specific antibody (Cell Signaling, Beverly, Mass.). For studies involving primary hypothalamic neurons, the hypothalamus from rats was surgically isolated immediately after euthanasia, and placed in the DMEM for incubation with leptin in the presence or absence of CRP.

[2] = system: tyrosine phosphorylation of STAT3; experiment: Leptin-induced tyrosine phosphorylation of STAT3 in HEK293 cells over-expressing OB-Rb in the presence of CRP (Western blot); assay type: cell-based, human
Procedure: as §1

[3] = system: IL-6 induced activation of STAT3; experiment: IL-6 induced activation of STAT3 in human primary hepatocytes; assay type: cell-based; settings: even higher CRP concentration
Description: Human hepatocytes were isolated from donor livers. Briefly, the livers were perfused in a three-step process. A calcium-free buffer supplemented with EGTA is used to break […] junctions, which is followed by the same perfusion buffer without EGTA. Finally, a calcium-containing buffer supplemented with digestive enzymes (collagenase and DNase) was used. Following digestion, parenchymal hepatocytes were isolated by three steps of low-speed centrifugation. Cells with a viability of at least 85% were plated and cultured in hepatocytes maintenance medium (HMM) (Cambrex BioScience, Walkersville, Md.) supplemented with 10% fetal bovine serum (FBS), 0.1 μM dexamethasone, 0.1 μM insulin, and 50 μg/ml gentamicin on collagen-coated tissue culture dishes for 2-4 hours. The cells were subsequently cultured in the above medium without FBS.
Approximately 24 hours after seeded, the hepatocytes were washed with serum-free HMM supplemented with 0.1 μM dexamethasone and 0.1 μM insulin, and then cultured in the same medium for another 48 hours. Subsequently, the cells were switched to serum-free HMM supplemented with 0.1 μM dexamethasone before stimulated with leptin (NHPP) or rhIL-6 (R&D Systems, Minneapolis, Minn.) for 24 hours or 48 hours. For experiments involving PI3-kinase inhibitors, hepatocytes were pretreated with LY294002 (EMD Biosciences, Calif.) for 1 hour before hormonal stimulation.

recombinant human leptin = target: T1, recombinant human leptin (Homo sapiens, UniProt P41159); experiment: Immuno-precipitation assay of direct binding of human CRP and human leptin; settings: leptin/CRP mixture and human serum; Western blot with anti-CRP
T1 construct: purchased AF Parlow of NHPP, Torrance, CA
T1 sequence (P41159 22-167): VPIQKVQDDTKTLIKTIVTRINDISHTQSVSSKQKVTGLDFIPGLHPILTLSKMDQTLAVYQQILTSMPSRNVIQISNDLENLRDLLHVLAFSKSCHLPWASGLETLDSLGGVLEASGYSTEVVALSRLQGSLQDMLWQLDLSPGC
Procedure: To explore a physical interaction between CRP and leptin, the direct binding of these proteins was determined by an immuno-precipitation assay. Rat CRP was purified from fresh rat serum to >95% purity employing a previously established affinity-purification protocol (20). […] The purified human- and rat-CRP proteins were pre-mixed with recombinant human and mouse leptin, respectively, before addition of antibodies specific for human- and mouse-leptin. The concentrations of CRP and leptin in the precipitation reaction were all within the physiological ranges that have been observed in humans or rats (11 & 15). In parallel experiments, recombinant leptin also was pre-mixed with human- or rat-serum to allow for direct interaction prior to immuno-precipitation. The protein precipitates obtained were subjected to Western blot assays using specific anti-CRP antibodies.

For “human CRP: human C-reactive protein, purified preparation from a commercial source”, the “serum concentration of human CRP” value (ob/ob mice; end of infusion, 48 μg/day/mouse) was 850 ± 100 ng/mL, the “effect of human CRP on satiety and weight-reducing effects of human leptin in the absence of the polypeptide” value (ob/ob mice; human CRP 48 μg/day/mouse, leptin 12 μg/day/mouse) was “able to block the satiety and weight-reducing effects” and the “effect on leptin signaling (phospho-STAT3, PI3-kinase)” value [1] was “specifically inhibited leptin signaling”. For the same substance, the “calcium dependence of attenuation of leptin signaling” value ([2]; excess EGTA added to the medium) was “requires the presence of calcium ions”, the “effect of CRP on human leptin-induced tyrosine phosphorylation of STAT3” value ([2]; HEK293 OB-Rb) was “attenuating effects; also recorded: caused the reduction of leptin-stimulated STAT3 activation; also recorded: attenuate” and the “effect of CRP on human leptin-induced tyrosine phosphorylation of STAT3” value ([2]; HEK293 OB-Rb, listed as Human CRP) was “suppressed the activation of STAT3; also recorded: suppresses activation of STAT3”. The “effect of CRP on murine leptin-induced tyrosine phosphorylation of STAT3” value ([2]; murine/mouse leptin, HEK293 OB-Rb) was “does not have attenuation effect; also recorded: unable to block”, the “effect on IL-6 induced activation of STAT3” value [3] was “did not suppress” and the “co-precipitation of CRP with anti-human leptin antibody” value (recombinant human leptin) was “could pull down human CRP”.

From patent US20070218504A1, “HUMAN LEPTIN-DERIVED POLYPEPTIDES AND USES THEREOF” (UNIVERSITY OF PITTSBURGH, priority 2006, published 2007)
